# Reference: patent US7928078B2, “Conjugates of immune cell specific macrolide compounds with anti-inflammatory compounds for improved cellular targeting of anti-inflammatory therapy” (GlaxoSmithKline Istrazivacki Centar Zagreb D.O.O., priority 2001, dated 2011)
# Molecular target: T1, alpha isoform of human glucocorticoid receptor (Homo sapiens, UniProt P04150)
# T1 construct: expressed in transfected cells; host or cells: COS-1 cells, transient transfection with pcDNA3.1 hygro(+) carrying the GR alpha cDNA
# T1 sequence (P04150 1-777): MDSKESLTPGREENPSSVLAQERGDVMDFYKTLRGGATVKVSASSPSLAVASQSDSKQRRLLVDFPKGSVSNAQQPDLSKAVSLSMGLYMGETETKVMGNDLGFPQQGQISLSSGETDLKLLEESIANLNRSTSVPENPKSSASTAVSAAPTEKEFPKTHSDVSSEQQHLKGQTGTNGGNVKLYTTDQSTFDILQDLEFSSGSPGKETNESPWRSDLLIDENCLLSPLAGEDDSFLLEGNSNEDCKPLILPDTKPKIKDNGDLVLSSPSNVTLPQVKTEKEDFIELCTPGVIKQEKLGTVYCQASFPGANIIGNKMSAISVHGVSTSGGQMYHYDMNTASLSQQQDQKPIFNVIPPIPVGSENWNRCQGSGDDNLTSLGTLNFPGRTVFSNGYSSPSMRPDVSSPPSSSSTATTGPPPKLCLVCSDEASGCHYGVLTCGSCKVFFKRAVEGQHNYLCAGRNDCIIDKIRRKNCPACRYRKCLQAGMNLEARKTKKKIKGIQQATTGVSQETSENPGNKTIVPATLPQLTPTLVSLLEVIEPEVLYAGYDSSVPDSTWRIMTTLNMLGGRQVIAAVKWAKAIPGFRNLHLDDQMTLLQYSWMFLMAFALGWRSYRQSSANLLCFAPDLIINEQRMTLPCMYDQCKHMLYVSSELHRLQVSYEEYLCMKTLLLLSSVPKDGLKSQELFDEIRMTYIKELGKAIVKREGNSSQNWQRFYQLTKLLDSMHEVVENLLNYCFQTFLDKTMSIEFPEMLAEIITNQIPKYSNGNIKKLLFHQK
# Assay: Assay of binding to the human glucocorticoid receptor ([3H] dexamethasone competition in transfected COS-1 cells)
# Settings: 24 nM [3H] dexamethasone
# From the text: Assay of Binding to the Human Glucocorticoid Receptor
# The gene for alpha isoform of human glucocorticoid receptor was cloned by reverse polymerase chain reaction. The total RNA was isolated from human peripheral blood lymphocites according to the instructions of the manufacturer (Qiagen), transcripted into cDNA with AMV reverse transcriptase (Roche) and the gene was multiplied by specific primers
# The obtained reaction product was cloned into XhoI/BamHI site of Bluescript KS plasmid (Stratagene), subjected to sequencing by dideoxy fluorescent method with M13 and M13 rev primers (Mycrosynth) and then it was cloned into XhoI/BamHI site of pcDNA3.1 hygro(+)plasmid (Invitrogen). 1×10^5 COS-1 cells were seeded onto a 12-well plate (Falcon) in DMEM medium (Life Technologies) with 10% FBS (Biowhitaker) and cultivated up to a 70% confluence at 37° C. in an atmosphere with 5% CO2. The medium was removed and 1 μg of DNA, 7 μl of PLUS reagent and 2 μl of Lipofectamine (Life Technologies) in 500 μl DMEM were added per well. The cells were incubated at 37° C. in an atmosphere with 5% CO2 and after 5 hours the same volume of 20% FBS/DMEM was added. After 24 hours the medium was completely changed. 48 hours after the transfection, the test compounds in different concentrations and 24 nM [^3H] dexamethasone (Pharmacia) in DMEM medium were added. The cells were incubated for 90 minutes at 37° C. in an atmosphere with 5% CO2, washed three times with PBS buffer (Sigma), cooled to 4° C. (pH=7.4) and then lyzed in Tris buffer (pH=8.0) (Sigma) with 0.2% SDS (Sigma). After the addition of UltimaGold XR (Packard) scintillation liquid, the residual radioactivity was read in a Tricarb (Packard) β-scintillation counter.
row,Compound,competition with radioactive dexamethasone in the binding site on the glucocorticoid receptor
1,CC[C@H]1OC(=O)[C@H](C)[C@@H](O)[C@H](C)[C@@H](O[C@@H]2O[C@H](C)C[C@@H](N(C)C)[C@H]2OC(=O)CCCCOC(=O)[C@@]2(O)[C@H](C)CC3C4C[C@H](F)C5=CC(=O)C=C[C@]5(C)[C@@]4(Cl)[C@@H](O)C[C@@]32C)[C@](C)(O)C[C@@H](C)CN(C)[C@H](C)[C@@H](O)[C@]1(C)O (stereo partly drawn) [Compound 27],able to compete with radioactive dexamethasone

# System: mouse T-cell hybridoma 13
# Assay: Assay of inhibition of mouse T-cell hybridoma 13 proliferation as a result of apoptose induction
# Assay type: cell-based
# Settings: [3H] thymidine incorporation
# Protocol: Assay of Inhibition of Mouse T-Cell Hybridoma 13 Proliferation as a Result of Apoptose Induction
# In a 96-well plate triplicates of test steroid dilution in RPMI medium (Immunoloski zavod) with […] were performed. To the solutions of compounds 20 000 cells per well were added and incubated overnight at 37° C. in an atmosphere with 5% CO2, then 1 μCi of [^3H] thymidine (Pharmacia) was added and it was incubated for additional 3 hours. The cells were harvested by sucking over GF/C filter (Packard). Onto each well 30 μl of Microscynt O scintillation liquid (Packard) were added and the incorporated radioactivity was measured on a β-scintillation counter (Packard). The specifity of apoptose induction by glucocorticoids was proven by antagonising the proliferation inhibition with mifepristone (Sigma).
row,Compound,inhibition of cell hybridoma 13 proliferation
1,CC[C@H]1OC(=O)[C@H](C)[C@@H](O)[C@H](C)[C@@H](O[C@@H]2O[C@H](C)C[C@@H](N(C)C)[C@H]2OC(=O)CCCCOC(=O)[C@@]2(O)[C@H](C)CC3C4C[C@H](F)C5=CC(=O)C=C[C@]5(C)[C@@]4(Cl)[C@@H](O)C[C@@]32C)[C@](C)(O)C[C@@H](C)CN(C)[C@H](C)[C@@H](O)[C@]1(C)O (stereo partly drawn) [Compound 27],demonstrated an inhibition

# System: interleukin-2 production induced by the stimulation via CD3 receptor
# Assay: Assay of inhibition of interleukin-2 production
# Assay type: cell-based, mouse
# Settings: not given
# Protocol: Assay of Inhibition of Interleukin-2 Production
# Onto a 96-well plate (Nunc) 15 ng of 2C11 antibodies (Pharmingen) per well were added and left to adsorb in PBS buffer (pH=7.4) overnight at 4° C. PBS was removed, the plate was washed with RPMI medium and then 50,000 cells per well were added and incubated in the medium with and without a dilution of the test compounds. The concentration of IL-2 in the supernatant was measured by ELISA specific for mouse IL-2 (R&D Systems).
row,Compound,inhibition of interleukin-2 production
1,CC[C@H]1OC(=O)[C@H](C)[C@@H](O)[C@H](C)[C@@H](O[C@@H]2O[C@H](C)C[C@@H](N(C)C)[C@H]2OC(=O)CCCCOC(=O)[C@@]2(O)[C@H](C)CC3C4C[C@H](F)C5=CC(=O)C=C[C@]5(C)[C@@]4(Cl)[C@@H](O)C[C@@]32C)[C@](C)(O)C[C@@H](C)CN(C)[C@H](C)[C@@H](O)[C@]1(C)O (stereo partly drawn) [Compound 27],demonstrate an inhibition

# System: not given
# Assay: not given
# Settings: not given
row,Compound,melting point [°C]
1,CC[C@H]1OC(=O)[C@H](C)[C@@H](O[C@@H]2C[C@](C)(OC)[C@H](O)C(C)O2)[C@H](C)[C@@H](O[C@@H]2O[C@H](C)C[C@@H](N(C)C)[C@H]2O)[C@](C)(O)C[C@@H](C)CN(CCCNC(=O)[C@@]2(O)[C@H](C)CC3C4C[C@H](F)C5=CC(=O)C=C[C@]5(C)[C@@]4(Cl)[C@@H](O)C[C@@]32C)[C@H](C)[C@@H](O)[C@]1(C)O (stereo partly drawn),194 to 202
2,CC[C@H]1OC(=O)[C@H](C)[C@@H](O[C@@H]2C[C@](C)(OC)[C@H](O)C(C)O2)[C@H](C)[C@@H](O[C@@H]2O[C@H](C)C[C@@H](N(C)C)[C@H]2O)[C@](C)(O)C[C@@H](C)CN(CCCNC(=O)[C@@]23OC(C)(C)O[C@@H]2CC2C4C[C@H](F)C5=CC(=O)C=C[C@]5(C)[C@@]4(F)[C@@H](O)C[C@@]23C)[C@H](C)[C@@H](O)[C@]1(C)O (stereo partly drawn),178
3,CC[C@H]1OC(=O)C(C)[C@@H](O)[C@H](C)[C@@H](O[C@@H]2O[C@H](C)C[C@@H](N(C)C)[C@H]2O)[C@](C)(O)C[C@@H](C)CN(CCCNC(=O)[C@@]2(O)[C@H](C)CC3C4C[C@H](F)C5=CC(=O)C=C[C@]5(C)[C@@]4(Cl)[C@@H](O)C[C@@]32C)[C@H](C)[C@@H](O)[C@]1(C)O (stereo partly drawn),130 to 132
4,CC[C@H]1OC(=O)[C@H](C)[C@@H](O)[C@H](C)C(O[C@@H]2O[C@H](C)C[C@@H](N(C)C)[C@H]2O)[C@](C)(O)C[C@@H](C)CN(CCCNC(=O)[C@@]2(O)[C@H](C)CC3C4C[C@H](F)C5=CC(=O)C=C[C@]5(C)C4[C@@H](O)C[C@@]32C)[C@H](C)[C@@H](O)[C@]1(C)O (stereo partly drawn),202 to 204
5,CC[C@H]1OC(=O)[C@H](C)[C@@H](O)[C@H](C)[C@@H](O[C@@H]2O[C@H](C)C[C@@H](N(C)C)[C@H]2O)[C@](C)(O)C[C@@H](C)CN(CCCNC(=O)[C@@]2(O)[C@H](C)CC3C4C[C@H](F)C5=CC(=O)C=C[C@]5(C)[C@@]4(F)[C@@H](O)C[C@@]32C)[C@H](C)[C@@H](O)[C@]1(C)O (stereo partly drawn),182
6,CC[C@H]1OC(=O)[C@H](C)[C@@H](O)[C@H](C)[C@@H](O[C@@H]2O[C@H](C)C[C@@H](N(C)C)[C@H]2O)[C@](C)(O)C[C@@H](C)CN(CCCNC(=O)[C@@]2(O)CCC3C4CCC5=CC(=O)CC[C@]5(C)C4[C@@H](O)C[C@@]32C)[C@H](C)[C@@H](O)[C@]1(C)O (stereo partly drawn),160 to 161
7,CC[C@H]1OC(=O)[C@H](C)[C@@H](O)[C@H](C)[C@@H](O[C@@H]2O[C@H](C)C[C@@H](N(C)C)[C@H]2O)[C@](C)(O)C[C@@H](C)CN(CCCNC(=O)[C@@]2(O)[C@H](C)CC3C4CCC5=CC(=O)C=C[C@]5(C)[C@@]4(F)[C@@H](O)C[C@@]32C)[C@H](C)[C@@H](O)[C@]1(C)O (stereo partly drawn),260 to 265
8,CC[C@H]1OC(=O)[C@H](C)[C@@H](OC(=O)CCCCOC(=O)[C@@]2(O)[C@H](C)CC3C4CCC5=CC(=O)C=C[C@]5(C)[C@@]4(F)[C@@H](O)C[C@@]32C)[C@H](C)[C@@H](O[C@@H]2O[C@H](C)C[C@@H](N(C)C)[C@H]2OC(C)=O)[C@](C)(O)C[C@@H](C)CN(C)[C@H](C)[C@@H](O)[C@]1(C)O (stereo partly drawn),174 to 175
9,CC[C@H]1OC(=O)[C@H](C)[C@@H](O[C@@H]2C[C@](C)(OC)[C@H](O)C(C)O2)[C@H](C)[C@@H](O[C@@H]2O[C@H](C)C[C@@H](N(C)C)[C@H]2OC(=O)CCCCOC(=O)[C@@]2(O)[C@H](C)CC3C4C[C@H](F)C5=CC(=O)C=C[C@]5(C)[C@@]4(F)[C@@H](O)C[C@@]32C)[C@](C)(O)C[C@@H](C)CN(C)[C@H](C)[C@@H](O)[C@]1(C)O (stereo partly drawn),159 to 160
10,CC[C@H]1OC(=O)[C@H](C)[C@@H](O[C@@H]2C[C@](C)(OC)[C@H](O)C(C)O2)[C@H](C)[C@@H](O[C@@H]2O[C@H](C)C[C@@H](N(C)C)[C@H]2OC(=O)CCCCOC(=O)[C@@]2(O)[C@H](C)CC3C4CCC5=CC(=O)C=C[C@]5(C)[C@@]4(F)[C@@H](O)C[C@@]32C)[C@](C)(O)C[C@@H](C)CN(C)[C@H](C)[C@@H](O)[C@]1(C)O (stereo partly drawn),161 to 168
11,CC[C@H]1OC(=O)[C@H](C)[C@@H](O[C@@H]2C[C@](C)(OC)[C@H](O)C(C)O2)[C@H](C)[C@@H](O[C@@H]2O[C@H](C)C[C@@H](N(C)C)[C@H]2OC(=O)CCCCOC(=O)[C@@]2(O)[C@H](C)CC3C4C[C@H](F)C5=CC(=O)C=C[C@]5(C)[C@@]4(Cl)[C@@H](O)C[C@@]32C)[C@](C)(O)C[C@@H](C)CN(C)[C@H](C)[C@@H](O)[C@]1(C)O (stereo partly drawn),91 to 99
12,CC[C@H]1OC(=O)[C@H](C)[C@@H](O)[C@H](C)[C@@H](O[C@@H]2O[C@H](C)C[C@@H](N(C)C)[C@H]2OC(=O)CCCCOC(=O)[C@@]2(O)[C@H](C)CC3C4CCC5=CC(=O)C=C[C@]5(C)[C@@]4(F)[C@@H](O)C[C@@]32C)[C@](C)(O)C[C@@H](C)CN(C)[C@H](C)[C@@H](O)[C@]1(C)O (stereo partly drawn),170
13,CC[C@H]1OC(=O)[C@H](C)[C@@H](O)[C@H](C)[C@@H](O[C@@H]2O[C@H](C)C[C@@H](N(C)C)[C@H]2OC(=O)CCCCOC(=O)[C@@]2(O)[C@H](C)CC3C4C[C@H](F)C5=CC(=O)C=C[C@]5(C)C4[C@@H](O)C[C@@]32C)[C@](C)(O)C[C@@H](C)CN(C)[C@H](C)[C@@H](O)[C@]1(C)O (stereo partly drawn),145 to 151
14,CC[C@H]1OC(=O)[C@H](C)[C@@H](O[C@@H]2C[C@](C)(OC)[C@H](O)C(C)O2)[C@H](C)[C@@H](O[C@@H]2O[C@H](C)C[C@@H](N(C)C)[C@H]2O)[C@](C)(O)C[C@@H](C)CN(CCCNC(=O)[C@@]2(O)[C@H](C)CC3C4C[C@H](F)C5=CC(=O)C=C[C@]5(C)C4[C@@H](O)C[C@@]32C)[C@H](C)[C@@H](O)[C@]1(C)O (stereo partly drawn),175 to 178
15,CC[C@H]1OC(=O)[C@H](C)[C@@H](O)[C@H](C)[C@@H](O[C@@H]2O[C@H](C)C[C@@H](N(C)C)[C@H]2OC(=O)CCCCOC(=O)[C@@]2(O)[C@H](C)CC3C4C[C@H](F)C5=CC(=O)C=C[C@]5(C)[C@@]4(Cl)[C@@H](O)C[C@@]32C)[C@](C)(O)C[C@@H](C)CN(C)[C@H](C)[C@@H](O)[C@]1(C)O (stereo partly drawn) [Compound 27],130 to 132
